{"source": "patent US20200368312A1", "about": "(priority 2017, published 2020)", "key": {"[1]": {"system": "quality control strain ATCC 29213 (MSSA)", "assay": "MIC, CLSI-guided broth susceptibility testing (Example 10)", "format": "cell-based, Staphylococcus aureus", "protocol": "(§1) MIC Testing: Glycopeptide compounds were dissolved in 100% DMSO. In vitro activities were determined using CLSI-guided broth susceptibility testing to measure drug minimum inhibitory concentrations (MICs) of the compounds against the quality control strain ATCC 29213 (MSSA) and the MRSA isolate ATCC BAA-1556. Glycopeptides are defined as compounds of Formula (I), and their respective R^1, R^2, R^3 and R^4 groups. X is —O— for each compound in Table 2."}, "[2]": {"system": "MRSA isolate ATCC BAA-1556", "assay": "MIC, CLSI-guided broth susceptibility testing (Example 10)", "format": "cell-based, Staphylococcus aureus", "protocol": "as §1"}, "[3]": {"system": "C. perfringens", "format": "cell-based", "details": "C. perfringens MMX 8351 ATCC 13124"}, "[4]": {"system": "S. hominis (CoNS)", "assay": "Broth microdilution MIC, S. hominis (CoNS) (Table 7)", "format": "cell-based", "details": "S. hominis (CoNS) MMX 667 ATCC 27844"}, "[5]": {"system": "S. epidermidis (CoNS)", "assay": "Broth microdilution MIC, S. epidermidis (CoNS) (Table 7)", "format": "cell-based"}, "[6]": {"system": "Staphylococcus aureus", "assay": "microbe, parasite or virus in culture", "format": "cell-based"}, "[7]": {"system": "P. anaerobius", "assay": "Broth microdilution MIC, P. anaerobius (Table 7)", "format": "cell-based", "details": "P. anaerobius MMX 1208 ATCC 27337"}, "[8]": {"system": "P. acnes", "assay": "Broth microdilution MIC, P. acnes (Table 7)", "format": "cell-based"}, "[9]": {"system": "Clostridium difficile", "assay": "Broth microdilution MIC, C. difficile, anaerobic, supplemented Brucella Broth (Example 11, Table 7)", "format": "cell-based"}, "[10]": {"system": "Enterococci", "format": "cell-based"}, "[11]": {"system": "P. micros", "assay": "Broth microdilution MIC, P. micros (Table 7)", "format": "cell-based", "details": "P. micros MMX 3546"}, "[12]": {"system": "S. haemolyticus (CoNS)", "assay": "Broth microdilution MIC, S. haemolyticus (CoNS) (Table 7)", "format": "cell-based", "details": "S. haemolyticus (CoNS) MMX 529 ATCC 29970"}, "[13]": {"system": "S. lugdenensis (CoNS)", "assay": "Broth microdilution MIC, S. lugdenensis (CoNS) (Table 7)", "format": "cell-based", "details": "S. lugdenensis (CoNS) MMX 8724"}, "[14]": {"system": "Streptococci", "assay": "Broth microdilution MIC, Streptococci (Example 11, Table 7)", "format": "cell-based"}}, "note": "Where two headings read alike, the source gives them in different places."}
{"smiles": "CCCCCCCCCCNCCN[C@@]1(C)C[C@H](O[C@H]2[C@H](Oc3c4cc5cc3Oc3ccc(cc3Cl)[C@@H](O)[C@@H](NC(=O)[C@@H](CC(C)C)NC)C(=O)N[C@@H](CC(N)=O)C(=O)N[C@H]5C(=O)N[C@H]3C(=O)N[C@H](C(=O)N[C@H](C(=O)O)c5cc(O)c(CNCP(=O)(O)O)c(O)c5-c5cc3ccc5O)[C@H](O)c3ccc(c(Cl)c3)O4)O[C@H](CO)[C@@H](O)[C@@H]2O)O[C@@H](C)[C@H]1O", "note": "[Telavancin]", "values": [{"measurement": "MIC Values MSSA 29213", "setting": "[1]", "value": 0.063, "unit": "µg/mL"}, {"measurement": "MIC Values MRSA 1556", "setting": "[2]", "value": 0.063, "unit": "µg/mL"}, {"measurement": "MIC", "setting": "[3]", "value": 0.015, "unit": "µg/mL"}, {"measurement": "MIC", "setting": "[4]", "value": 0.06, "unit": "µg/mL"}, {"measurement": "MIC", "setting": "[5]; S. epidermidis (CoNS) MMX 762, MRSE", "value": 0.12, "unit": "µg/mL"}, {"measurement": "MIC", "setting": "[5]; S. epidermidis (CoNS) MMX 5145, MRSE", "value": 0.03, "unit": "µg/mL"}, {"measurement": "RV40 activity as compared to Comparator", "setting": "[6]; MRSA strains (Table 5), […]", "value": 6, "unit": "×"}, {"measurement": "MIC", "setting": "[6]; S. aureus MMX 100 ATCC 29213, MSSA (quality control)", "value": 0.06, "unit": "µg/mL"}, {"measurement": "MIC", "setting": "[6]; S. aureus MMX 1723, Mu50, VISA", "value": 0.5, "unit": "µg/mL"}, {"measurement": "MIC", "setting": "[6]; S. aureus MMX 2010, MRSA", "value": 0.06, "unit": "µg/mL"}, {"measurement": "MIC", "setting": "[6]; S. aureus MMX 2011 ATCC BAA-1756, MRSA", "value": 0.06, "unit": "µg/mL"}, {"measurement": "MIC", "setting": "[6]; S. aureus MMX 2124, VISA, DaptoNS", "value": 0.5, "unit": "µg/mL"}, {"measurement": "MIC", "setting": "[6]; S. aureus MMX 2490, MSSA", "value": 0.12, "unit": "µg/mL"}, {"measurement": "MIC", "setting": "[6]; S. aureus MMX 3982, MRSA", "value": 0.06, "unit": "µg/mL"}, {"measurement": "MIC", "setting": "[6]; S. aureus MMX 4658, VISA", "value": 0.12, "unit": "µg/mL"}, {"measurement": "MIC", "setting": "[6]; S. aureus MMX 4660, VISA", "value": 0.12, "unit": "µg/mL"}, {"measurement": "MIC", "setting": "[6]; S. aureus MMX 4665, hVISA", "value": 0.25, "unit": "µg/mL"}, {"measurement": "MIC", "setting": "[6]; S. aureus MMX 4675 ATCC BAA-1556, MRSA", "value": 0.06, "unit": "µg/mL"}, {"measurement": "MIC", "setting": "[6]; S. aureus MMX 5717 ATCC 33591, MRSA", "value": 0.06, "unit": "µg/mL"}, {"measurement": "MIC", "setting": "[6]; S. aureus MMX 5985, MRSA", "value": 0.06, "unit": "µg/mL"}, {"measurement": "MIC", "setting": "[6]; S. aureus MMX 5989, Mu3, hVISA", "value": 0.12, "unit": "µg/mL"}, {"measurement": "MIC", "setting": "[6]; S. aureus MMX 5999, MRSA", "value": 0.06, "unit": "µg/mL"}, {"measurement": "MIC", "setting": "[6]; S. aureus MMX 7899, MRSA", "value": 0.06, "unit": "µg/mL"}, {"measurement": "MIC", "setting": "[6]; S. aureus MMX 7900, MRSA", "value": 0.06, "unit": "µg/mL"}, {"measurement": "MIC", "setting": "[6]; S. aureus MMX 7901, MRSA", "value": 0.03, "unit": "µg/mL"}, {"measurement": "MIC", "setting": "[6]; S. aureus MMX 7902, MRSA", "value": 0.06, "unit": "µg/mL"}, {"measurement": "MIC", "setting": "[6]; S. aureus MMX 7903, MRSA", "value": 0.06, "unit": "µg/mL"}, {"measurement": "MIC", "setting": "[6]; S. aureus MMX 7907, MSSA", "value": 0.06, "unit": "µg/mL"}, {"measurement": "MIC", "setting": "[6]; S. aureus MMX 7908, MSSA", "value": 0.12, "unit": "µg/mL"}, {"measurement": "MIC", "setting": "[7]", "value": 0.03, "unit": "µg/mL"}, {"measurement": "MIC", "setting": "[8]; P. acnes MMX 7942 ATCC 6919", "value": 0.03, "unit": "µg/mL"}, {"measurement": "MIC", "setting": "[8]; P. acnes MMX 7946 ATCC 11827", "value": 0.015, "unit": "µg/mL"}, {"measurement": "MIC", "setting": "[9]; C. difficile MMX 4381 ATCC 700057, toxinAB-negative", "value": 0.12, "unit": "µg/mL"}, {"measurement": "MIC", "setting": "[9]; C. difficile MMX 4994 ATCC BAA-1805, ribotype 027", "value": 0.12, "unit": "µg/mL"}, {"measurement": "MIC", "setting": "[9]; C. difficile MMX 5668 ATCC BAA-1870, NAP1/027", "value": 0.12, "unit": "µg/mL"}, {"measurement": "MIC", "setting": "[10]; E. faecalis MMX 101 ATCC 29212, VSE", "value": 0.12, "unit": "µg/mL"}, {"measurement": "MIC", "setting": "[10]; E. faecalis MMX 1086, VanA VRE", "value": 1, "unit": "µg/mL"}, {"measurement": "MIC", "setting": "[10]; E. faecalis MMX 4176", "value": 0.25, "unit": "µg/mL"}, {"measurement": "MIC", "setting": "[10]; E. faecium MMX 173, VanB VRE", "value": 0.06, "unit": "µg/mL"}, {"measurement": "MIC", "setting": "[10]; E. faecium MMX 851, VanA VRE", "value": 2, "unit": "µg/mL"}, {"measurement": "MIC", "setting": "[10]; E. faecium MMX 4204", "value": 0.06, "unit": "µg/mL"}, {"measurement": "activity against vancomycin-resistant enterococci (VRE)", "setting": "[10]; VRE, MIC values elevated relative to vancomycin-susceptible enterococci (VSE)", "value": "potent activity"}, {"measurement": "MIC", "setting": "[11]", "value": 0.06, "unit": "µg/mL"}, {"measurement": "MIC", "setting": "[12]", "value": 0.06, "unit": "µg/mL"}, {"measurement": "MIC", "setting": "[13]", "value": 0.06, "unit": "µg/mL"}, {"measurement": "MIC", "setting": "[14]; S. agalactiae MMX 427 ATCC 13813", "value": 0.06, "unit": "µg/mL"}, {"measurement": "MIC", "setting": "[14]; S. agalactiae MMX 4088", "value": 0.06, "unit": "µg/mL"}, {"measurement": "MIC", "setting": "[14]; S. agalactiae MMX 4115, erm^R", "value": 0.06, "unit": "µg/mL"}, {"measurement": "MIC", "setting": "[14]; S. anginosus (AGS) MMX 1201 ATCC 33397", "value": 0.06, "unit": "µg/mL"}, {"measurement": "MIC", "setting": "[14]; S. constellatus (AGS) MMX 5677", "value": 0.03, "unit": "µg/mL"}, {"measurement": "MIC", "setting": "[14]; S. dysgalactiae MMX 5121", "value": 0.12, "unit": "µg/mL"}, {"measurement": "MIC", "setting": "[14]; S. dysgalactiae MMX 5123", "value": 0.25, "unit": "µg/mL"}, {"measurement": "MIC", "setting": "[14]; S. dysgalactiae MMX 5124", "value": 0.03, "unit": "µg/mL"}, {"measurement": "MIC", "setting": "[14]; S. mitis (MGS) MMX 1205 ATCC 49456", "value": 0.06, "unit": "µg/mL"}, {"measurement": "MIC", "setting": "[14]; S. oralis (MGS) MMX 5821", "value": 0.06, "unit": "µg/mL"}, {"measurement": "MIC", "setting": "[14]; S. pneumoniae MMX 432, PRSP", "value": 0.03, "unit": "µg/mL"}, {"measurement": "MIC", "setting": "[14]; S. pneumoniae MMX 747", "value": 0.015, "unit": "µg/mL"}, {"measurement": "MIC", "setting": "[14]; S. pneumoniae MMX 1195 ATCC 49619, PISP", "value": 0.03, "unit": "µg/mL"}, {"measurement": "MIC", "setting": "[14]; S. pyogenes MMX 404 ATCC 19615", "value": 0.06, "unit": "µg/mL"}, {"measurement": "MIC", "setting": "[14]; S. pyogenes MMX 946, ermR", "value": 0.06, "unit": "µg/mL"}, {"measurement": "MIC", "setting": "[14]; S. pyogenes MMX 8778", "value": 0.06, "unit": "µg/mL"}]}
